The target in experiment [1] is CDK11 (Homo sapiens, UniProt Q9BWU1). The experiment can be described thus: KINOMEscan binding constant, CDK11. The following applies: read-out: Binding affinity (Kd, nM) CDK11.
Experiment [2] deals with T1, PFCDPK1(P.falciparum) (Plasmodium falciparum, UniProt P62344).
T1 construct: gene CDPK1
The experiment can be described thus: biochemical. The conditions noted are these: competition binding; read-out: %Ctrl @ 1000nM.

For experiment [3], the target named is PKNB(M.tuberculosis) (Mycobacterium tuberculosis, UniProt P9WI81). The experiment can be described thus: biochemical. The following applies: read-out: %Ctrl @ 1000nM.
Chain of PKNB(M.tuberculosis) (P9WI81 whole entry, looked up): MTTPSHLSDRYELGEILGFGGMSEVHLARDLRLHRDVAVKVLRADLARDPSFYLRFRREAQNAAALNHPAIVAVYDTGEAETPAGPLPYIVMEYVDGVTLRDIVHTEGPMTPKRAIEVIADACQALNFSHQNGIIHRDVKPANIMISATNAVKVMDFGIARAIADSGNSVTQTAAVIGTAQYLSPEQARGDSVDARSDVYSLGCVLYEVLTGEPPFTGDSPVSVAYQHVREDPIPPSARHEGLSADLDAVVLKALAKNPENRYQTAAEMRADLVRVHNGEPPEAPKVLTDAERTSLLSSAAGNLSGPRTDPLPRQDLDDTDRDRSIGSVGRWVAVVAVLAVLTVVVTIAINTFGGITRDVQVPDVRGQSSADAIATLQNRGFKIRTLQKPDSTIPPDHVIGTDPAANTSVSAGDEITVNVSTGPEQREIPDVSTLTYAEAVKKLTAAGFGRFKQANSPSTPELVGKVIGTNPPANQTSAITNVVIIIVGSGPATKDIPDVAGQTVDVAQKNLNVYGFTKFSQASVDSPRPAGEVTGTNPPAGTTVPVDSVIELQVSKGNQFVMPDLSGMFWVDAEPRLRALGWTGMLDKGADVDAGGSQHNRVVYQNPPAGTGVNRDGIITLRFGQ
Experiment [4] addresses LTK (Homo sapiens, UniProt P29376). The experiment in a line: biochemical. The following applies: competition binding; read-out: %Ctrl @ 1000nM.
The target of experiment [5] is CAMK2G (Homo sapiens, UniProt Q13555). The experiment can be described thus: biochemical. The following applies: read-out: %Ctrl @ 1000nM.
Chain of CAMK2G (Q13555 whole entry): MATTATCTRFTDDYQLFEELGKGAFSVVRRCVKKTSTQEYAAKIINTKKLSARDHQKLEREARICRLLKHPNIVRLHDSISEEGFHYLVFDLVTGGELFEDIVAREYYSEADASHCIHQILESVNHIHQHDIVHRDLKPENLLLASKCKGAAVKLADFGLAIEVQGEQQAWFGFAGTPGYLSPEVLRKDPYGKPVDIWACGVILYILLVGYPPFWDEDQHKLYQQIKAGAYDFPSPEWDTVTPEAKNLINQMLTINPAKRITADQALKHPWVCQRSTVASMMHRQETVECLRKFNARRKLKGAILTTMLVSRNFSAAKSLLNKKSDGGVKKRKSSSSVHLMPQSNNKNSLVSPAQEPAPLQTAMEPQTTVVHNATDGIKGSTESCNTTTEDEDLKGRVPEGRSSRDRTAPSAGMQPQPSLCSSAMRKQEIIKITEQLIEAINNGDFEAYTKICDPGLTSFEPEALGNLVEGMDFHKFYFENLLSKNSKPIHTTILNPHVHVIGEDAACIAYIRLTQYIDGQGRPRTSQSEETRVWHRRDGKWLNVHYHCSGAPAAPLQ
In experiment [6] the target is JAK2(JH1domain-catalytic) (Homo sapiens, UniProt O60674). The experiment in a line: biochemical. The following applies: read-out: %Ctrl @ 1000nM.
Chain of JAK2(JH1domain-catalytic) (O60674 whole entry): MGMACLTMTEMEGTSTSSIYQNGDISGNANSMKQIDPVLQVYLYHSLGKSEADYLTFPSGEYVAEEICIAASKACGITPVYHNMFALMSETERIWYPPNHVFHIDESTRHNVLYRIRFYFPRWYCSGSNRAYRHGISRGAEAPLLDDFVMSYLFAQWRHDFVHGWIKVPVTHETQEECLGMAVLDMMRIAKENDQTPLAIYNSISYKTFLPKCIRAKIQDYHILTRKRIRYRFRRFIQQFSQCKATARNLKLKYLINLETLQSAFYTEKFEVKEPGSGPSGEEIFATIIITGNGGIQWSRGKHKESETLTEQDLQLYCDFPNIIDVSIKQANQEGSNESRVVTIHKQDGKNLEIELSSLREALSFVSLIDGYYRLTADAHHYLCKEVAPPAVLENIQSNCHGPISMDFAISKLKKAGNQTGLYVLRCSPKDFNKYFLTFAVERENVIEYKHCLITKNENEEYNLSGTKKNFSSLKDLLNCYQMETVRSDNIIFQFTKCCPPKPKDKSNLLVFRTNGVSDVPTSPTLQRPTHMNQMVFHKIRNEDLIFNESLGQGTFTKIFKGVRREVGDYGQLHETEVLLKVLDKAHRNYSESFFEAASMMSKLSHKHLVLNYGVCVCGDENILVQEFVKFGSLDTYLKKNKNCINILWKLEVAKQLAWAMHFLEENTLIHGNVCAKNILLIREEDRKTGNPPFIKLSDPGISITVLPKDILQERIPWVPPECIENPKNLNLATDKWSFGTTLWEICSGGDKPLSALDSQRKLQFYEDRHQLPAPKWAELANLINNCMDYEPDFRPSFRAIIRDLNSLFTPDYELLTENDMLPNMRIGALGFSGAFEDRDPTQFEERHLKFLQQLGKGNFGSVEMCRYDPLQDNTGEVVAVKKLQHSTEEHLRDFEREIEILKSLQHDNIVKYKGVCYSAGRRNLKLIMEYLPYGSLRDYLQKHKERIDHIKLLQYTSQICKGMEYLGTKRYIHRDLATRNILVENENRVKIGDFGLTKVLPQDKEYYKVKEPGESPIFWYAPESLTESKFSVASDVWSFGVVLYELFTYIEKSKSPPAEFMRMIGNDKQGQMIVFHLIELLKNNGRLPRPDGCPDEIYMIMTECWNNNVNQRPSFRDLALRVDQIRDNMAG
Experiment [7] addresses T2, MST3 (Homo sapiens, UniProt Q9Y6E0).
T2 construct: gene STK24
The experiment can be described thus: biochemical. The conditions noted are these: read-out: %Ctrl @ 1000nM.

Experiment [8] addresses NEK4 (Homo sapiens, UniProt P51957). The experiment can be described thus: biochemical. The following applies: read-out: %Ctrl @ 1000nM.
Experiment [9] has as its target TGFBR2 (Homo sapiens, UniProt P37173). The experiment can be described thus: biochemical. The conditions noted are these: read-out: %Ctrl @ 1000nM.

Usually Kd stands for the concentration at which binding is half-saturated.

T2 sequence (Q9Y6E0 whole entry): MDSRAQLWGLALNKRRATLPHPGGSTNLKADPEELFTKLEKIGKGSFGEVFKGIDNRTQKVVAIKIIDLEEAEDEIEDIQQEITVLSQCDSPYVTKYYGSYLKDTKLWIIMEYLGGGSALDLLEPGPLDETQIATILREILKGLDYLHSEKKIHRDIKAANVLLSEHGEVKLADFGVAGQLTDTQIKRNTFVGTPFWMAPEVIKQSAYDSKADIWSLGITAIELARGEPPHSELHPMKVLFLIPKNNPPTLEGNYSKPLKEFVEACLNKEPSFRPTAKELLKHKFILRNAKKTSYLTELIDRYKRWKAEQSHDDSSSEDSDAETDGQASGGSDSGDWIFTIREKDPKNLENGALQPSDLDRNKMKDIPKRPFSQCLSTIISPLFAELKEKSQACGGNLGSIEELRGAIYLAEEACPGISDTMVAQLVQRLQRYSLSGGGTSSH
T1 sequence (P62344 whole entry): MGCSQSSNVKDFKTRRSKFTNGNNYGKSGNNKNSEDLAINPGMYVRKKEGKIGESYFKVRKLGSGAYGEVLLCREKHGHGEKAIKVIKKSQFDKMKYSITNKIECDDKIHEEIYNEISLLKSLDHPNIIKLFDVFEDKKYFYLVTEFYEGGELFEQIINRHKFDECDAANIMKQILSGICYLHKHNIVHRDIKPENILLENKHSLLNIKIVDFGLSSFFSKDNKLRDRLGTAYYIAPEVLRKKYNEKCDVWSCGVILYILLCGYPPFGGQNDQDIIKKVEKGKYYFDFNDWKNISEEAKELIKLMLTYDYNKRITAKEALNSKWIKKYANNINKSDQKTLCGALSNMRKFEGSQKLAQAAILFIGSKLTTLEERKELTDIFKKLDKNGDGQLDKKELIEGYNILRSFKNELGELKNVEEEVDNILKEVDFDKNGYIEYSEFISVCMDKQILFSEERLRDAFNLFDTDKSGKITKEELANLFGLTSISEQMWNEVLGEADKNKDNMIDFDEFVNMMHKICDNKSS
Chain of NEK4 (P51957 whole entry): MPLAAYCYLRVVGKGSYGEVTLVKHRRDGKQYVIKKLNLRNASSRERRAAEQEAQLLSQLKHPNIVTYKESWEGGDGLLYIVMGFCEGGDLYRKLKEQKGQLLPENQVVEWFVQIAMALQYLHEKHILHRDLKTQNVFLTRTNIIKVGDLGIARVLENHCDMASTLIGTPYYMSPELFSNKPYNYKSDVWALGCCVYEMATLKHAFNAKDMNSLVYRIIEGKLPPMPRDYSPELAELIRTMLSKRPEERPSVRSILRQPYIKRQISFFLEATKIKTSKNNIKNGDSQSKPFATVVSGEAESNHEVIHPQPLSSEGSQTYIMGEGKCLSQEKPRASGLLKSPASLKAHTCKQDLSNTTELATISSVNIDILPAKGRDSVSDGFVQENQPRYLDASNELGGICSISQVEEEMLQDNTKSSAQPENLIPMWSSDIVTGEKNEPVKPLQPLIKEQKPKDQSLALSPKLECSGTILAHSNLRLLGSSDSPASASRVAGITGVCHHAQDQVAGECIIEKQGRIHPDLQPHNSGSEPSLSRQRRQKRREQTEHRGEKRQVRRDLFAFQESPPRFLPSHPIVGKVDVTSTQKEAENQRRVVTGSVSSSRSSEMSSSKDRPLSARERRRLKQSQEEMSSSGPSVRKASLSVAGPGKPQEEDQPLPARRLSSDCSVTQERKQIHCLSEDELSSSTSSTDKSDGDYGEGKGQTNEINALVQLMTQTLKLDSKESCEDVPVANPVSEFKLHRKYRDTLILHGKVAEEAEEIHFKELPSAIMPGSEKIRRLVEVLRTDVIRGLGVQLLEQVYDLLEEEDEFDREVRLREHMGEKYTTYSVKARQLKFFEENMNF
Chain of CDK11 (Q9BWU1 whole entry): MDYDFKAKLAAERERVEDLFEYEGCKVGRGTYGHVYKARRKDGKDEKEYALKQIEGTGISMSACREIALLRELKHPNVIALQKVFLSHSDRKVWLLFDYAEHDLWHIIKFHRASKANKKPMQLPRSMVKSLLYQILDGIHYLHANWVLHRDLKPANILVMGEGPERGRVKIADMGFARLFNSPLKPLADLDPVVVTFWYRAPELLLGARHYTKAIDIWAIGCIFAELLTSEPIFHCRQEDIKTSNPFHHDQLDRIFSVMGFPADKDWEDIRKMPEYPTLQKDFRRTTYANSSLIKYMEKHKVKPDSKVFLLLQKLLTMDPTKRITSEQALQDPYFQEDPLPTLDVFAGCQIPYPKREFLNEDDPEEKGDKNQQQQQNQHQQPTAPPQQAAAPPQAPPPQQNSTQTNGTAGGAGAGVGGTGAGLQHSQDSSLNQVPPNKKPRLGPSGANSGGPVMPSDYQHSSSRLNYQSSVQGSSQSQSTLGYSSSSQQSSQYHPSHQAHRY

In the case of `Cc1cn(-c2cc(NC(=O)c3ccc4c(c3)CN(c3cncnc3)C[C@@H]4C)cc(C(F)(F)F)c2)cn1` [Compound 6j], in [1], the dissociation constant Kd turned out to be 370 nM. In addition, the remaining binding at 1 µM in [2] stood at 93%; in [3], 100%; in experiment [4] it was 73%. The remaining activity at 1 µM turned out to be 63% in experiment [5]; 100% in experiment [6]; 64% in [7]; 98% in [8]; 94% in experiment [9].

Source of the values: publication PMC5053573, “Structure-Based Design of Tetrahydroisoquinoline-7-carboxamides as Selective Discoidin Domain Receptor 1 (DDR1) Inhibitors” (Journal of Medicinal Chemistry, 2016).
